Experimental data: ChEMBL document CHEMBL1909046, “DrugMatrix in vitro pharmacology data”

Columns and labels:
[1] = DRUGMATRIX: Atrial Natriuretic Factor (ANF) radioligand binding (ligand: [125I] ANF (rat)); assay type: cell membranes, Cavia porcellus, Dunkin-Hartley, Adrenal gland, Membrane; details: Not Active = under 50% inhibition at 10 µM
[2] = DRUGMATRIX: Serotonin (5-Hydroxytryptamine) 5-HT3 radioligand binding (ligand: [3H] GR-65630); assay type: cell membranes, Membrane; details: hek293, Not Active = under 50% inhibition at 10 µM
Cathepsin G = biological target: T1, Cathepsin G (Homo sapiens, UniProt P08311); assay type: tissue-based; details: neutrophil;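 further: inhibition of Cathepsin G enzyme activity, tested on an AMC-conjugated peptide substrate; in other assays of this panel Not Active means under 50% inhibition at 10 µM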
T1 sequence (P08311 whole entry): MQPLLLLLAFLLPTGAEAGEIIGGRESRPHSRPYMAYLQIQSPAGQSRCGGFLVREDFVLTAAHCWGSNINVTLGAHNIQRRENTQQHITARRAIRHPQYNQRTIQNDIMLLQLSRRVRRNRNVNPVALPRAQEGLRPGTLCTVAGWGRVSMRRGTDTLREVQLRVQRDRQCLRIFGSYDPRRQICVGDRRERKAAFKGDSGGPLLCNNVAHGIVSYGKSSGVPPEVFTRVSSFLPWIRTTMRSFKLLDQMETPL

[3] = biological target: T2, 3-hydroxy-3-methylglutaryl-coenzyme A reductase (Homo sapiens, UniProt P04035); set-up: species or system Escherichia coli;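 further: enzyme inhibition assay of HMG-CoA reductase using radiolabeled [14C]HMG-CoA as substrate; in other assays of this panel Not Active means under 50% inhibition at 10 µM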
T2 sequence (P04035 whole entry): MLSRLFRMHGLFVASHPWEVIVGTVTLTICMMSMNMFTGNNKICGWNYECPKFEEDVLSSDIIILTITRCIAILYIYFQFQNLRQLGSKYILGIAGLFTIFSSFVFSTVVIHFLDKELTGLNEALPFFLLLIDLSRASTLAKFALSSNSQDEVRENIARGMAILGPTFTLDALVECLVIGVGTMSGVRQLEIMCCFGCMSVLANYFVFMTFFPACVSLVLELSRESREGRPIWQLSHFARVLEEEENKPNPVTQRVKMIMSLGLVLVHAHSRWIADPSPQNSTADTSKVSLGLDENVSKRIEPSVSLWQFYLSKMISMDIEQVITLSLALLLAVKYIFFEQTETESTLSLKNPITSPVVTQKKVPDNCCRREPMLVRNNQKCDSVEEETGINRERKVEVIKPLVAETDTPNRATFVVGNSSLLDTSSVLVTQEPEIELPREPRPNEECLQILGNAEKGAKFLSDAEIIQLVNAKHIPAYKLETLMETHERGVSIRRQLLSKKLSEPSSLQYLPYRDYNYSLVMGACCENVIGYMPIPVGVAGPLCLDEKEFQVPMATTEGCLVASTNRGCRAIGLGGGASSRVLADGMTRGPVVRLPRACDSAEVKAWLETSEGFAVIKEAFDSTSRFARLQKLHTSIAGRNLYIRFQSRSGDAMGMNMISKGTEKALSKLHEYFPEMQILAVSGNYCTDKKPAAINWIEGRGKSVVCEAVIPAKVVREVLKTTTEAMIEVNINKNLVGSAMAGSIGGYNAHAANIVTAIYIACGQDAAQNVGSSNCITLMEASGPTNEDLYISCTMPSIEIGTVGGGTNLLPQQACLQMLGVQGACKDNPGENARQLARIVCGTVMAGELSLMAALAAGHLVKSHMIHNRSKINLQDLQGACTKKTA

[4] = biological target: T3, Vasoactive intestinal polypeptide receptor 1 (Homo sapiens, UniProt P32241); assay type: cell membranes, Membrane; details: ht-29; further: in other assays of this panel Not Active means under 50% inhibition at 10 µM
T3 sequence (P32241 whole entry): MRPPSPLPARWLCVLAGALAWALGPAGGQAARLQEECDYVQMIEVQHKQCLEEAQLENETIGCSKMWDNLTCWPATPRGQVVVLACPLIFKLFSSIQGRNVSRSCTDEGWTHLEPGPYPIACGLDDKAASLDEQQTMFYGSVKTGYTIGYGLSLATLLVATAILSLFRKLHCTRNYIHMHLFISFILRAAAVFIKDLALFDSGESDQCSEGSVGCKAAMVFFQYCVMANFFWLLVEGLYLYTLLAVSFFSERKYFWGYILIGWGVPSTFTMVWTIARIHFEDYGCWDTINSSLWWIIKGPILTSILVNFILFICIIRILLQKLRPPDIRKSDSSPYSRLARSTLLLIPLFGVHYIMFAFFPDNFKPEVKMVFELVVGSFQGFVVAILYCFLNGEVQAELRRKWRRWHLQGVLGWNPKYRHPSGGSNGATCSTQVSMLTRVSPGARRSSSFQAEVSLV

[5] = biological target: Receptor tyrosine-protein kinase erbB-2 (Homo sapiens, UniProt P04626); assay: biochemical; assay type: cell-based, Insect cells; details: insect cells;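 further: inhibition of HER2 kinase enzyme activity, measured with Poly(Glu:Tyr) as the phosphorylation substrate; in other assays of this panel Not Active means under 50% inhibition at 10 µM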
Receptor tyrosine-protein kinase erbB-2, sequence (P04626 whole entry): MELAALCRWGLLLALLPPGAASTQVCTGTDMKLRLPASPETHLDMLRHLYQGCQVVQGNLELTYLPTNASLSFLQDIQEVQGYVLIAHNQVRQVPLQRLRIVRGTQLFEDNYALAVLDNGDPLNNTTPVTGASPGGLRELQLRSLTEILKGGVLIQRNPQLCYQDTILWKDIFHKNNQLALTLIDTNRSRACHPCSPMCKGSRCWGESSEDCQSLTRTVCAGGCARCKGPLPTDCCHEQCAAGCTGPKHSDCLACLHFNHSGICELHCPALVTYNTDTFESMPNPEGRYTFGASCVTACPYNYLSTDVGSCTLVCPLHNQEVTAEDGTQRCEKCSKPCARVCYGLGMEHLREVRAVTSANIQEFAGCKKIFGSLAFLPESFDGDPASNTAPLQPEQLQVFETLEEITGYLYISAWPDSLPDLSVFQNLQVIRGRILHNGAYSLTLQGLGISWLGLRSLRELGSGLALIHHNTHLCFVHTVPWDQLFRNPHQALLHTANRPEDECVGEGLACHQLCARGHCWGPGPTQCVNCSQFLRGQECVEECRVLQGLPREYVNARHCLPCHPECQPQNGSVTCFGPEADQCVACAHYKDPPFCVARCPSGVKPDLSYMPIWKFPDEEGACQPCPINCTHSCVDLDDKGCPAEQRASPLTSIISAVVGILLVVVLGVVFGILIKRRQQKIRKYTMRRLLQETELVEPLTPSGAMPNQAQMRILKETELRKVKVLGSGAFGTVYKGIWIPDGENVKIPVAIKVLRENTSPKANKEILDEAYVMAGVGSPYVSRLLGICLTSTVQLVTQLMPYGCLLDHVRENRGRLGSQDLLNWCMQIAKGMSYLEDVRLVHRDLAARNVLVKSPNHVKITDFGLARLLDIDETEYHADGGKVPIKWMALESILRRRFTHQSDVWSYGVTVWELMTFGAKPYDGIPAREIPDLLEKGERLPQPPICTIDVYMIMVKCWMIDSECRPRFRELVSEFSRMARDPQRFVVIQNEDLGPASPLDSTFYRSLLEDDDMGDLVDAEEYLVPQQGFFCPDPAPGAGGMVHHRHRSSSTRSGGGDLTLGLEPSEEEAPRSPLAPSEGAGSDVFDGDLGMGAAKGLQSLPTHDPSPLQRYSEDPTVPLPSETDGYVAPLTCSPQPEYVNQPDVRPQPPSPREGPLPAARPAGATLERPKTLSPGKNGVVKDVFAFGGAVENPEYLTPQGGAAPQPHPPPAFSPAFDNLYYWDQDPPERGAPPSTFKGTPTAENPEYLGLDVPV

[6] = biological target: 5-hydroxytryptamine receptor 1B (Rattus norvegicus, UniProt P28564); assay type: cell membranes, Wistar, Cerebral cortex, Membrane; further: in other assays of this panel Not Active means under 50% inhibition at 10 µM
5-hydroxytryptamine receptor 1B, sequence (P28564 whole entry): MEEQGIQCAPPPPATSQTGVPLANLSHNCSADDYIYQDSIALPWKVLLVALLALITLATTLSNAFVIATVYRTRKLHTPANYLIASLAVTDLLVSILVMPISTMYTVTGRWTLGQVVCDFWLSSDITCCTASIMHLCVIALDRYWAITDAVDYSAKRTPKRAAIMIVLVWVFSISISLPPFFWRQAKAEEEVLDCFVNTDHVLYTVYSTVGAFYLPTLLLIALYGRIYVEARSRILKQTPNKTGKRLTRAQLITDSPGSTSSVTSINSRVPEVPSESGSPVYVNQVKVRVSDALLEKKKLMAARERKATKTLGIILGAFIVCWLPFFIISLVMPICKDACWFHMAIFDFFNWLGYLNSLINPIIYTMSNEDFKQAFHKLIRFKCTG

[7] = biological target: T4, Alpha-2C adrenergic receptor (Homo sapiens, UniProt P18825); assay: DRUGMATRIX: Adrenergic Alpha-2C radioligand binding (ligand: [3H] MK-912); assay type: cell membranes, Sf9, Membrane; details: sf9
T4 sequence (P18825 whole entry): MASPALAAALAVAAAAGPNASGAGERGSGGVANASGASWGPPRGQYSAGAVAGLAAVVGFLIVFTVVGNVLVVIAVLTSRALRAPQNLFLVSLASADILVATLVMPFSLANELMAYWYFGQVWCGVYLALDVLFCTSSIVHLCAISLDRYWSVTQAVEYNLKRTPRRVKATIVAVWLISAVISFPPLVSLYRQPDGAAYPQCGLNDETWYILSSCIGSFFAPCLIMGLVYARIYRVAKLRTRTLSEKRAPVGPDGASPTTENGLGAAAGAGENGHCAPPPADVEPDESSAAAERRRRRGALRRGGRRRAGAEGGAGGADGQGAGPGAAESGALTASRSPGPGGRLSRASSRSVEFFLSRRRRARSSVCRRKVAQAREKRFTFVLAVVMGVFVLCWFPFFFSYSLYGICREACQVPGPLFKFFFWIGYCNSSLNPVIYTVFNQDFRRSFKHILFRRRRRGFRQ

[8] = biological target: T5, C-X-C chemokine receptor type 1 (Homo sapiens, UniProt P25024); further: in other assays of this panel Not Active means under 50% inhibition at 10 µM
T5 sequence (P25024 whole entry): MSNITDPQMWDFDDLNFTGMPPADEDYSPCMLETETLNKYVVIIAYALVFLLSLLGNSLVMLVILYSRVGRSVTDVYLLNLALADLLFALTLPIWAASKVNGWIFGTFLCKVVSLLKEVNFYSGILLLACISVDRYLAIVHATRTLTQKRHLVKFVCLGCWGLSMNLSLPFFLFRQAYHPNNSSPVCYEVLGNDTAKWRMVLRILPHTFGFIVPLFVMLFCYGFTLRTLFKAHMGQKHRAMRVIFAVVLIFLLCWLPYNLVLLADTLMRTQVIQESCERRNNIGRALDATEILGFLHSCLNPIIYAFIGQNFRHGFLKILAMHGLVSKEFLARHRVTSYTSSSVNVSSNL

| SMILES | IC50 [1] | Ki [1] | IC50 [2] | Ki [2] | IC50 (Cathepsin G) | IC50 [3] | IC50 [4] | IC50 [5] | IC50 [6] | IC50 [7] | IC50 [8] | IC50 ([2]; read-out: IC50) | Ki ([2]; read-out: Ki) |
| --- | --- | --- | --- | --- | --- | --- | --- | --- | --- | --- | --- | --- | --- |
| CN(N=O)C(=O)N[C@@H](C=O)[C@@H](O)[C@H](O)[C@H](O)CO [STREPTOZOCIN] | Not Active | Not Active | Not Active | Not Active | Not Active | Not Active | Not Active | Not Active | Not Active | Not Active | Not Active | – | – |
| Cc1cc(NS(=O)(=O)c2ccc(N)cc2)no1 [SULFAMETHOXAZOLE] | Not Active | Not Active | Not Active | Not Active | Not Active | Not Active | Not Active | Not Active | Not Active | Not Active | Not Active | – | – |
| Nc1ccc(S(N)(=O)=O)cc1 [SULFANILAMIDE] | Not Active | Not Active | Not Active | Not Active | Not Active | Not Active | Not Active | Not Active | Not Active | Not Active | Not Active | – | – |
| Nc1ccc(S(=O)(=O)Nc2ccnn2-c2ccccc2)cc1 [SULFAPHENAZOLE] | Not Active | Not Active | Not Active | Not Active | Not Active | Not Active | Not Active | Not Active | Not Active | Not Active | Not Active | – | – |
| C=CC[C@@H]1/C=C(\C)C[C@H](C)C[C@H](OC)[C@H]2O[C@@](O)(C(=O)C(=O)N3CCCC[C@H]3C(=O)O[C@H](/C(C)=C/[C@@H]3CC[C@@H](O)[C@H](OC)C3)[C@H](C)[C@@H](O)CC1=O)[C@H](C)C[C@@H]2OC [TACROLIMUS ANHYDROUS] | Not Active | Not Active | Not Active | Not Active | Not Active | Not Active | Not Active | Not Active | Not Active | Not Active | Not Active | – | – |
| CC1CN(c2cc3c(cc2F)c(=O)c(C(=O)O)cn3-c2ccc(F)cc2F)CCN1 (configuration not stated) [TEMAFLOXACIN] | Not Active | Not Active | Not Active | Not Active | Not Active | Not Active | Not Active | Not Active | Not Active | Not Active | Not Active | – | – |
| CC(C)(C)NCC(O)c1cc(O)cc(O)c1 (configuration not stated) [TERBUTALINE] | Not Active | Not Active | Not Active | Not Active | Not Active | Not Active | Not Active | Not Active | Not Active | Not Active | Not Active | – | – |
| CN(C)[C@@H]1C(O)=C(C(N)=O)C(=O)[C@@]2(O)C(O)=C3C(=O)c4c(O)cccc4[C@@](C)(O)[C@H]3C[C@@H]12 [TETRACYCLINE] | Not Active | Not Active | Not Active | Not Active | Not Active | Not Active | Not Active | Not Active | Not Active | Not Active | Not Active | – | – |
| c1ccc2[nH]c(-c3cscn3)nc2c1 [THIABENDAZOLE] | Not Active | Not Active | Not Active | Not Active | Not Active | Not Active | Not Active | Not Active | Not Active | Not Active | Not Active | – | – |
| Cc1ccc(C(=O)C(C)CN2CCCCC2)cc1 (configuration not stated) [TOLPERISONE] | Not Active | Not Active | Not Active | Not Active | Not Active | Not Active | Not Active | Not Active | Not Active | Not Active | Not Active | – | – |
| NC(CO)(CO)CO [TROMETHAMINE] | Not Active | Not Active | Not Active | Not Active | Not Active | Not Active | Not Active | Not Active | Not Active | Not Active | Not Active | – | – |
| CN1[C@@H]2CC[C@H]1C[C@@H](OC(=O)c1c[nH]c3ccccc13)C2 [TROPISETRON] | Not Active | Not Active | – | – | Not Active | Not Active | Not Active | Not Active | Not Active | Not Active | Not Active | 6.76 nM | 1.52 nM |
